Assay results as given in patent publication US4309305A, “In vitro removal of actinide (IV) ions” (priority 1979, dated 1982).

How the values were obtained:
[1] = qualitative observation of dissolution of Pu(IV) in the presence of the compound
animals = assay: Toxicity studies / toxicity to animals; conditions: in vivo
[2] = Distribution of ^238 Pu-citrate in Mouse Tissues (actinide-ion sequestering activity, animal studies); format: in vivo; set-up: Liver, distribution of ^238 Pu-citrate (mean) / Skel, distribution of ^238 Pu-citrate (mean) / G.I., distribution of ^238 Pu-citrate (mean) / Kidney, distribution of ^238 Pu-citrate (mean) / Total, distribution of ^238 Pu-citrate: unit not given here
Method: Specifically, animal studies were carried out with compounds 2, 3, 4, and 10.
Distribution of ^238 Pu-Citrate in Mouse Tissues
Age of animals 74 weeks 74 weeks
^(b) Animals injected I.P. (Intraperitoneum)
(§1) Distribution of ^238 Pu-citrate in Mouse Tissues
Age of Animals 68 weeks 68 weeks
^(a) Animals injected I.M. (Intramuscular)
as §1
^(b) Animals injected I.P.
Age of animals 18 weeks 18 weeks
^(a) Animals injected I.M.

[3] = pH-titration of the constituent catechol groups; format: physicochemical; conditions: 4 protons, 4 constituent catechol groups
Method: Compound 2. Using method B, precusor 3 (1.0 g, 1.0 mmol) dissolved in CH2 Cl2 (25 ml) was added dropwise (15 min) via an addition funnel to an ice bath cooled, vigorously stirred solution of BBR3 (2 ml, 21 mmol) in CH2 Cl2 solution (25 ml). The ice bath was allowed to warm up to room temperature as the reaction slurry was stirred overnight. Cautious addition of H2 O (20 ml) was followed by an additional 2 hrs stirring to hydrolyze all boron compounds. Crude product was collected by filtration and washed well with H2 O. The pink-tan solid was dissolved in MeOH and precipitated by the addition of Et2 O. Drying at 115° (5-10 microns) overnight gave the demethylated product, compound 2 (0.88 mmol, 88%) as hygroscopic powder which analyzed with two waters of crystallization: m.p.
Compound 3 (1.0 g, 1.2 mmol) was dissolved in 98% H2 SO4 (5 ml), then SOCl2 (5 ml, 55 mmol) was added dropwise over a period of 1 hr with vigorous stirring. The reactants were protected from the atmosphere with a Drierite tube. After stirring overnight, the reaction mixture was poured onto ice. Workup as in method C gave white solid, 1.49 g (1.0 mmol, 85%) which analyzed as compound 4.3 NaCl.H2 O: IR (KBr) identical to that recorded in method A; purity also established by pH-titration giving pKa1 8.12 (4 protons) and pKa2 12.0 (4 protons) for the four constituent catechol groups.
Using precisely the same Method D, compound 7 was converted to compound 8. Thus was obtained hygroscopic white solid, 1.4 g (90%); IR (KBr) 2800-3700 s, 1600 s (>N--CO--), 1475, 1425 m, 1150-1300 s (--SO3 ^-1), 1100, 1045 s (--SO3^-), 620 (--SO3^-); purity also established by pH-titration giving pKa1 7.49 (4 protons) and pKa2 12.1 (4 protons) for the four constituent catechol groups.

[4] = I.P., killed 2 days after Pu injection, 74 weeks old
[5] = I.M., killed 2 days after Pu injection, 68 weeks old
[6] = I.M., killed 1 day after Pu injection, 18 weeks old
[7] = I.P., killed 1 day after Pu injection, 13.5 weeks old

O=C(c1cccc(O)c1O)N1CCCN(C(=O)c2cccc(O)c2O)CCN(C(=O)c2cccc(O)c2O)CCCN(C(=O)c2cccc(O)c2O)CC1 [Compound 1, 1,4,8,11-N,N',N'',N'''-Tetra(2,3-dihydroxybenzoyl)tetraazacyclotetradecane]
dissolution of Pu(IV) in presence of compound ([1]; even at high pH, qualitative): Pu(IV) dissolved in the presence of compound 1 even at high pH | formation constant for the Pu(IV) complex ([1]; inferred from dissolution of Pu(IV) and Ksp for Pu(OH)4): very high formation constant

O=C(c1ccc([N+](=O)[O-])c(O)c1O)N1CCCN(C(=O)c2ccc([N+](=O)[O-])c(O)c2O)CCN(C(=O)c2ccc([N+](=O)[O-])c(O)c2O)CCCN(C(=O)c2ccc([N+](=O)[O-])c(O)c2O)CC1 [Compound 2, 1,4,8,11-N,N',N'',N'''-Tetra(2,3-dihydroxy-4-nitrobenzoyl)tetraazacyclotetradecane]
toxicity to animals (animals): toxic to animals | Feces, distribution of ^238 Pu-citrate (mean) [2, 4]: 5.4 | G.I., distribution of ^238 Pu-citrate (mean) [2, 4]: 16.3 | Kidney, distribution of ^238 Pu-citrate (mean) [2, 4]: 6.0 | Liver, distribution of ^238 Pu-citrate (mean) [2, 4]: 36.6 | Skel, distribution of ^238 Pu-citrate (mean) [2, 4]: 7.9 | Skin, distribution of ^238 Pu-citrate (mean) [2, 4]: 11.2 | Soft Tis, distribution of ^238 Pu-citrate (mean) [2, 4]: 14.8 | Total, distribution of ^238 Pu-citrate [2, 4]: 100 | Urine, distribution of ^238 Pu-citrate (mean) [2, 4]: 1.8 | pKa1 [3]: 5.59 | pKa2 [3]: 11.8

1,6,11,16-N,N',N'',N'''-Tetra(2,3-dihydroxybenzoyl)tetraazahexadecane potassium sulfonate [Compound 8]
pKa1 [3]: 7.49 | pKa2 [3]: 12.1

O=C(c1cccc(O)c1O)N1CCCN(C(=O)c2cccc(O)c2O)CCCN(C(=O)c2cccc(O)c2O)CCCN(C(=O)c2cccc(O)c2O)CCC1 [Compound 3, 1,5,9,13-N,N',N'',N'''-Tetra(2,3-dihydroxybenzoyl)tetraazacyclohexadecane]
acute toxicity (animals): substantially acutely non-toxic | G.I., distribution of ^238 Pu-citrate (mean) [2, 5]: 4.4 | Kidney, distribution of ^238 Pu-citrate (mean) [2, 5]: 42.1 | Liver, distribution of ^238 Pu-citrate (mean) [2, 5]: 23.3 | Skel, distribution of ^238 Pu-citrate (mean) [2, 5]: 20.3 | Total, distribution of ^238 Pu-citrate [2, 5]: 101.6 | Urine, Feces (one value printed between both lines), distribution of ^238 Pu-citrate (mean) [2, 5]: 11.5

1,4,8,11-N,N',N'',N'''-Tetra(2,3-dihydroxybenzoyl)tetraazaundecane potassium sulfonate [Compound 10]
Feces, distribution of ^238 Pu-citrate (mean) [2, 6]: 2.2 | G.I., distribution of ^238 Pu-citrate (mean) [2, 6]: 10.2 | Kidney, distribution of ^238 Pu-citrate (mean) [2, 6]: 4.8 | Liver, distribution of ^238 Pu-citrate (mean) [2, 6]: 28.8 | Skel, distribution of ^238 Pu-citrate (mean) [2, 6]: 12.1 | Skin, distribution of ^238 Pu-citrate (mean) [2, 6]: 5.7 | Soft Tis, distribution of ^238 Pu-citrate (mean) [2, 6]: 7.1 | Total, distribution of ^238 Pu-citrate [2, 6]: 101.1 | Urine, distribution of ^238 Pu-citrate (mean) [2, 6]: 29.2

1,5,9,13-N,N',N'',N'''-Tetra(2,3-dihydroxybenzoyl)tetraazacyclohexadecane sodium sulfonate [Compound 4]
Feces, distribution of ^238 Pu-citrate (mean) [2, 7]: 3.1 | G.I., distribution of ^238 Pu-citrate (mean) [2, 7]: 8.2 | Kidney, distribution of ^238 Pu-citrate (mean) [2, 7]: 3.9 | Liver, distribution of ^238 Pu-citrate (mean) [2, 7]: 24.8 | Skel, distribution of ^238 Pu-citrate (mean) [2, 7]: 15.7 | Skin, distribution of ^238 Pu-citrate (mean) [2, 7]: 4.1 | Soft Tis, distribution of ^238 Pu-citrate (mean) [2, 7]: 6.4 | Total, distribution of ^238 Pu-citrate [2, 7]: 100 | Urine, distribution of ^238 Pu-citrate (mean) [2, 7]: 33.8 | pKa1 [3]: 8.12 | pKa2 [3]: 12.0
